For one data set, the system named is Leishmania donovani. Also on record: method as in PMID 20441198. The following applies: cited from earlier work; for selectivity index (CC50/EC50): Vero kidney cells CC50 vs L. donovani.
Data set [1] is described as follows: LM-1 macrophage cytotoxicity (Alamar Blue). Type of data set: cell-based, murine. As to conditions: for CC50 at 24 h: mouse. The method, then:
The host cytotoxicity was evaluated by monitoring the survival rates of murine LM-1 macrophage at different concentrations of peptides 15–37 ([…]) over 24 h. […] Exceptionally, MeAla peptide amide 21 was 3.2- to 8-fold less toxic than the other peptide analogs.
The LM1- macrophages were grown in DMEM supplemented with 10% heat inactivated FBS. Cells at the concentration of 100,000 cells/mL were cultivated for 24 h in a 96-well plate (37 °C, 5% CO2). The culture medium was removed and fresh medium containing the appropriate drug and concentration was added to the cells, which were incubated for 24 h (37 °C, 5% CO2). Seven different concentrations were tested ([…]) as well as controls (without drugs). After 24 h, the culture medium was removed and replaced for fresh medium containing 10% Alamar Blue (Thermo Fisher Scientific, Waltham, MA, USA) and incubated for 2 h (37 °C, 5% CO2). Readings at 570 and 600 nm (Asys UVM340 Plate reader, Biochrom, Cambridge, UK) were taken and analyzed according to the manufacturer protocol. Survival rates at different drug concentrations and CC50 values were calculated using the Excel software.

Data set [2] relates to L. infantum Sb2000.1 (resistant to antimony) promastigotes. Type of data set: cell-based, Leishmania infantum. As to conditions: strain resistant to 2 mM antimonials, 72 h, 25 °C, 95% CI in brackets (n = 3), read-out: Ldi Sb-Res EC50. As for the experimental part: (§1) The biological activity of peptides 15–37 was assessed against the L. infantum wild-type stain (WT), as well as mutants resistant to the common anti-leishmanial agents, such as antimony (Sb^III), amphotericin B (AmB) and miltefosine (MF): Sb2000.1, AmB1000.1 and MF200.5. Activity against Leishmania promastigotes was determined by monitoring the replication of parasites after 72 h of incubation at 25 °C in the presence of increasing concentrations of the different peptides […] and reported as EC50 values (Table 2). […] The greatest potencies were observed using analogs against the amphotericin B resistant strain (e.g., AmB1000.1).
(§2) The L. infantum (MHOM/MA/67/ITMAP-263) wild-type stain (WT), as well as the resistant mutants Sb2000.1, AmB1000.1 and MF200.5 [53, 54, 55, 56, 57, 58], resistant to antimony (Sb^III), amphotericin B (AmB) and miltefosine (MF), respectively, were grown in M199 medium at 25 °C supplemented with 10% fetal bovine serum, 5 μg/mL of haemin at pH 7.0 and 2000 μM Sb (Potassium antimonyl tartrate, Sigma-Aldrich), 200 μM of MF (Miltefosine, Cayman Chem., Ann Arbor, MI, USA) or 1 μM AmB (Amphotericin B solution, Sigma, Oakville, ON, Canada). Antileishmanial values were determined in Leishmania promastigotes by monitoring the replication of parasites after 72 h of incubation at 25 °C in the presence of increasing concentrations of the different peptides by measuring A600 using a Cytation 5 machine (BioTek, Winooski, VT, USA). EC50 values were calculated based on dose–response curves analyzed by non-linear regression with GraphPad Prism 8.4.3 software (GraphPad Software, La Jolla, CA, USA). An average of at least three independent biological replicates from independent cultures was performed for each determination.

Data set [3] deals with L. infantum (MHOM/MA/67/ITMAP-263) wild-type strain (WT) promastigotes. Type of data set: cell-based, Leishmania infantum. As to conditions: for pEC50: 72 h; for Selectivity Index: SI = CC50 (LM-1 macrophage)/EC50 Ldi WT. As for the experimental part: as §1, §2
For data set [4], the system named is L. infantum MF200.5 (resistant to miltefosine) promastigotes. Type of data set: cell-based, Leishmania infantum. The following applies: strain resistant to 200 µM miltefosine; promastigotes, 72 h, 25 °C; 95% CI in brackets (n = 3); read-out: Ldi MF-Res EC50. The method, then: as §1, §2
The subject of data set [5] is L. infantum AmB1000.1 (resistant to amphotericin B) promastigotes. Type of data set: cell-based, Leishmania infantum. As to conditions: for pEC50: strain resistant to 1 µM amphotericin B, promastigotes, 72 h, 25 °C, 95% CI in brackets (n = 3), read-out: Ldi AmB-Res EC50. As for the experimental part:
as §1, §2

The mark [6] stands for this setting: promastigotes, 25 °C, 95% confidence interval in brackets (n = 3), read-out: Ldi WT EC50.
[7] abbreviates: MHOM/MA/67/ITMAP-263) wild-type strain (WT) promastigotes.

pEC50: −log10 of the molar value. Read-outs that look alike come from different tables or passages of the source. Where a SMILES comes first, the peptide text is derived from it. [ ]: non-standard residue; d: D form. The star is where a group is joined. NMeF = CN[C@@H](Cc1ccccc1)C(=O)O; NMeV = CN[C@H](C(=O)O)C(C)C; Hept6ynoyl = C#CCCCCC(=O)*; NMeA = CN[C@@H](C)C(=O)O; NH(CH2)6NH2 = NCCCCCCN*

For the compound almiramide A [compound 1], the “activity against Leishmania donovani” value with Leishmania donovani was “inactive”.

Turning to Almiramide B [compound 2], in the data set with Leishmania donovani, the “selectivity index (CC50/EC50)” value was 21.8 and the “activity against Leishmania donovani” value was “low μM activity”.

One may read the CC50 as the concentration giving 50% cytotoxicity. The term pEC50 denotes the EC50 on a negative log10 scale, so that one unit is a factor of ten. `C#CCCCCC(=O)N[C@H](C(=O)Nn1c(C)cn([C@H](C(=O)N[C@@H](C)C(=O)N[C@@H](Cc2ccccc2)C(=O)O)C(C)C)c1=O)C(C)C` [peptide 37, HCC(CH2)4CO-Val-(5-Me)Nai-Val-Ala-Phe-OH]: the CC50 at 24 h in data set [1] was 407 µM. For the same compound, the pEC50 in data set [2], in data set [3] (setting [6]), in data set [4] and in data set [5] was less than 3.52 throughout.

Turning to Almiramide C [compound 3], in the data set with Leishmania donovani, the “selectivity index (CC50/EC50)” value is on record as 17.4 and the “activity against Leishmania donovani” value is recorded as “low μM activity”.

`C#CCCCCC(=O)N[C@H]1CCN([C@H](C(=O)N[C@H](C(=O)N[C@@H](C)C(=O)N[C@@H](Cc2ccccc2)C(=O)O)C(C)C)C(C)C)C1=O` [peptide 23, HCC(CH2)4CO-Agl-Val-Val-Ala-Phe-OH] showed a CC50 at 24 h in data set [1] of 363 µM. Besides, the pEC50 in data set [2] was 3.62; in data set [3] (setting [7]), 3.65; in data set [4], 3.64; in data set [5] it was 3.67. Besides, the “Selectivity Index” value in data set [3] came out at 1.61.

In data set [1], `C#CCCCCC(=O)N[C@H](C(=O)N[C@H](C(=O)N[C@H]1CCN([C@@H](C)C(=O)N[C@@H](Cc2ccccc2)C(=O)O)C1=O)C(C)C)C(C)C` [peptide 25, HCC(CH2)4CO-Val-Val-Agl-Ala-Phe-OH] registered a half-maximal cytotoxic concentration (CC50) at 24 h of 416 µM. In addition, the pEC50 in data set [2], in data set [3] (setting [6]), in data set [4] and in data set [5] was less than 3.52 throughout.

In data set [1], `C#CCCCCC(=O)N[C@H](C(=O)N[C@H]1CCN([C@H](C(=O)N[C@@H](C)C(=O)N[C@@H](Cc2ccccc2)C(=O)O)C(C)C)C1=O)C(C)C` [peptide 24, HCC(CH2)4CO-Val-Agl-Val-Ala-Phe-OH] showed a CC50 at 24 h of 398 µM. The pEC50 in data set [2] is 3.60; in data set [3] (setting [7]), 3.61; in data set [4] it was 3.62; in data set [5] it was 3.58. Besides, the “Selectivity Index” value in data set [3] came out at 1.6.

`C#CCCCCC(=O)N[C@H](C(=O)N[C@H](C(=O)N[C@H]1CCN([C@@H](C)C(=O)N[C@@H](Cc2ccccc2)C(=O)NCCCCCCN)C1=O)C(C)C)C(C)C` [peptide 31, HCC(CH2)4CO-Val-Val-Agl-Ala-Phe-NH(CH2)6NH2] had a CC50 at 24 h in data set [1] of 389 µM. Also, the pEC50 in data set [2] is 4.31; in data set [3] (setting [7]), 4.19; in data set [4], 3.90; in data set [5], 3.89. For the same compound, the “Selectivity Index” value in data set [3] is on record as 6.0.

For the compound `C#CCCCCC(=O)N[C@H](C(=O)N[C@H](C(=O)N[C@H](C(=O)N[C@H]1CCN([C@H](Cc2ccccc2)C(=O)NCCCCCCN)C1=O)C(C)C)C(C)C)C(C)C` [R-32, HCC(CH2)4CO-Val-Val-Val-Agl-D-Phe-NH(CH2)6NH2], the CC50 in data set [1] is 338 µM. Besides, the pEC50 in data set [2] is 3.96; in data set [3] (setting [7]), 4.03; in data set [4], 3.91; in data set [5], 3.93. The “Selectivity Index” value in data set [3] is given as 3.6.

In the case of `C#CCCCCC(=O)N[C@H](C(=O)N(C)[C@H](C(=O)N[C@H](C(=O)N[C@@H](C)C(=O)N[C@@H](Cc1ccccc1)C(=O)NCCCCCCN)C(C)C)C(C)C)C(C)C` [compound 19, HCC(CH2)4CO-Val-Val(Me)-Val-Ala-Phe-NH(CH2)6NH2] (Hept6ynoyl-V[NMeV]VAF-{NH(CH2)6NH2}), the CC50 at 24 h in data set [1] worked out at 316 µM. The pEC50 is 4.10 in data set [2], 4.09 in data set [3] (setting [7]), 4.05 in data set [4] and 4.15 in data set [5]. Also, the “Selectivity Index” value in data set [3] is recorded as 3.9.

As for `C#CCCCCC(=O)N(C)[C@H]1CCN([C@H](C(=O)N(C)[C@H](C(=O)N(C)[C@@H](C)C(=O)N(C)[C@@H](Cc2ccccc2)C(=O)NCCCCCCN)C(C)C)C(C)C)C1=O` [peptide 33, HCC(CH2)4CO-Agl(Me)-Val-Val(Me)-Ala(Me)-Phe(Me)-NH(CH2)6NH2], the midpoint of cytotoxicity in data set [1], the CC50 at 24 h, lay at 407 µM. Moreover, the pEC50 was 3.85 in data set [2], 3.92 in data set [3] (setting [7]), 3.72 in data set [4] and 3.74 in data set [5]. The “Selectivity Index” value in data set [3] stood at 3.4.

`C#CCCCCC(=O)N[C@H](C(=O)N[C@H](C(=O)N[C@H](C(=O)N[C@@H](C)C(=O)N(C)[C@@H](Cc1ccccc1)C(=O)NCCCCCCN)C(C)C)C(C)C)C(C)C` [peptide 22, HCC(CH2)4CO-Val-Val-Val-Ala-Phe(Me)-NH(CH2)6NH2] (Hept6ynoyl-VVVA[NMeF]-{NH(CH2)6NH2}) registered a CC50 at 24 h in data set [1] of 446 µM. Also, the pEC50 in data set [2] was 4.60; in data set [3] (setting [7]), 4.54; in data set [4], 4.56; in data set [5], 4.59. In addition, the “Selectivity Index” value in data set [3] is given as 15.3.

Compound `C#CCCCCC(=O)N(C)[C@H](C(=O)N(C)[C@H](C(=O)N(C)[C@H]1CCN([C@@H](C)C(=O)N(C)[C@@H](Cc2ccccc2)C(=O)O)C1=O)C(C)C)C(C)C` [peptide 28, HCC(CH2)4CO-Val(Me)-Val(Me)-Agl(Me)-Ala-Phe(Me)-OH] showed a 50% cytotoxic concentration (CC50) at 24 h in data set [1] of 245 µM. Further, the pEC50 in data set [2] was 3.60; in data set [3] (setting [7]), 3.59; in data set [4] it was 3.55; in data set [5], less than 3.52. In data set [3], the “Selectivity Index” value is on record as 0.9.

`C#CCCCCC(=O)N(C)[C@H](C(=O)N[C@H](C(=O)N[C@H](C(=O)N[C@@H](C)C(=O)N[C@@H](Cc1ccccc1)C(=O)NCCCCCCN)C(C)C)C(C)C)C(C)C` [peptide 18, HCC(CH2)4CO-Val(Me)-Val-Val-Ala-Phe-NH(CH2)6NH2] (Hept6ynoyl-[NMeV]VVAF-{NH(CH2)6NH2}) displayed a CC50 at 24 h in data set [1] of 177 µM. The pEC50 is 4.40 in data set [2], 4.44 in data set [3] (setting [7]), 4.92 in data set [4] and 5.30 in data set [5]. The “Selectivity Index” value in data set [3] is recorded as 4.8. This compound came in with a therapeutic index in data set [5] (macrophage toxicity compared with potency against the AmB resistant Leishmania strain) of 36.

`C#CCCCCC(=O)N(C)[C@H](C(=O)N(C)[C@H](C(=O)N(C)[C@H](C(=O)N(C)[C@@H](C)C(=O)N(C)[C@@H](Cc1ccccc1)C(=O)NCCCCCCN)C(C)C)C(C)C)C(C)C` [peptide 17, HCC(CH2)4CO-Val(Me)-Val(Me)-Val(Me)-Ala(Me)-Phe(Me)-NH(CH2)6NH2] (Hept6ynoyl-[NMeV][NMeV][NMeV][NMeA][NMeF]-{NH(CH2)6NH2}): the CC50 at 24 h in data set [1] (LM-1 macrophages, 24 h, Alamar Blue, read-out: CC50) came out at 338 µM. In addition, the pEC50 in data set [2] was 4.22; in data set [3] (setting [6]) it was 4.31; in data set [4], 4.59; in data set [5], 5.25. The “Selectivity Index” value in data set [3] is 6.9. The “fold more active than nonmethylated counterpart” value in data set [5] (AmB1000.1, 17 vs 16, 35 vs 31) came to 4 fold.

Values taken from publication PMC8231256, “Influence of N-Methylation and Conformation on Almiramide Anti-Leishmanial Activity” (Molecules, 2021).
